In assay [1] the target is HIV-1 Rev protein RNA recognition element (RRE). In words: Fluorescence anisotropy: displacement of fluorescein-labeled Rev peptide from the RRE in solution. The class given is binding. An excerpt: In a modification of the above assay, the solid support aspect of the above embodiment is removed. The biophysical characteristics of potential inhibitory test compounds can be detected by fluorescence anisotropy as depicted in FIG. 5. The RRE-bound fluorescent peptide has a slower Brownian tumbling motion relative to the free peptide in solution. Upon displacement of the fluorescently labeled Rev from the RRE by a competing inhibitor, a decrease in the anisotropy value is observed. The displacement of the labeled-Rev can be followed by monitoring the anisotropy at the emission wavelength of the Rev34-50-bound fluorophore.
The HIV-1 Rev-RRE interaction was used to examine the impact of guanidinylation upon RNA binding, and to probe the potential antiviral activity of these compounds. The binding of Rev to the RRE (Rev response element) is responsible for the export of unspliced and singly spliced HIV genomic RNA out of the host nucleus. This essential protein-RNA interaction remains an important, and nonutilized, therapeutic target. The high-affinity Rev binding site on the RRE has been localized to the purine-rich bulge. The binding of Rev to the RRE is governed by the arginine-rich fragment, Rev34-50. Key guanidinium groups make direct contacts with the RNA platform and are essential for the specific binding of Rev to the RRE. Fluorescence anisotropy has been employed to determine the affinity of the new derivatives to the RRE in solution. The RRE-bound fluorescent Rev peptide has a slower Brownian tumbling motion relative to the free peptide. Upon displacement of the fluorescein-labeled Rev peptide from the RRE by an inhibitor, a decrease in the anisotropy value is observed. Table 4 (column a) compares the IC50 values of the guanidinoglycosides to the aminoglycosides. Guanidinylation of kanamycin A, kanamycin B, and tobramycin results in a greater than 10-fold increase in inhibitory activity relative to the parent compounds. A 5-fold increase in activity is observed upon guanidinylation of neomycin B and paromomycin.
For orientation: Fluorescence polarisation rises when a labelled molecule tumbles more slowly, as on binding a larger partner.

For assay [2] the target is unchanged. The assay is described as follows: Solid-phase assay: displacement of fluorescent Rev peptide from immobilized RRE. The class given is binding. An excerpt:
To facilitate the discovery of active guanidinoglycosides an assay system using HIV-1 response elements can be used. For example, RRE-specific binders as well as TAR specific binders can be identified using the methods of the present invention. The present invention provides a rapid screening assay and method depicted in FIG. 4. The Rev-RRE assay relies on the release of a fluorescently tagged Rev fragment from an immobilized RRE-Rev complex and can be performed under various stringency levels. The assay can be conducted in the presence of competing RNA molecules, other potential cellular targets, or cellular extracts. Only high affinity ligands can effectively compete with the bound Rev34-50 peptide (Kd is approximately 1 nM), thus releasing the highly fluorescent molecules into solution. Non-selective binders will be scavenged by competitor molecules present in solution.
In one embodiment, the present invention provides an assay for identifying a test compound which binds to RRE. The assay includes an immobilized RRE, a detectably labeled Rev, and a test compound. A test compound that liberates the labeled Rev due to competitive binding to the RRE results in an increase in the labeled Rev in the supernatant of the assay. Accordingly, following incubation of immobilized RRE, a labeled Rev, and a test compound, the supernatant is measured and the amount of label in the supernatant is determined. The amount of label in the supernatant is indicative of the degree or ability of the test compound to bind to the RRE or REV polypeptide. By comparing the amount of label in the supernatant with the amount in a control or standard sample, one can identify a test compound which effectively competes with the Rev for binding to RRE. […] In the depicted embodiment of FIG. 4 the ternary complex containing a fluorescently tagged Rev peptide bound to an immobilized RRE is incubated with the test compound (e.g., a potential competitor, binding agent or inhibitor)under conditions and in the presence of competing RNA molecules n a microcentrifuge filter tube. After incubation, the mixture is filtered and the filtrate is illuminated. In the presence of a strong and selective RRE binder, the fluorescently labeled peptide will be released from the beads into solution and the filtrate will become fluorescent.
The basic principle of the assay systems used to identify compounds that inhibit binding of Rev to RRE or compounds that interact with RRE involves preparing a reaction mixture containing the target (e.g., RRE) and the binding partner (e.g., labeled-Rev) under conditions and for a time sufficient to allow the two to interact and bind, thus form a complex. In order to test a compound for inhibitory activity, the reaction mixture is prepared in the presence and absence of the test compound. The test compound can be initially included in the reaction mixture, or can be added at a time subsequent to the addition of the RRE and its binding partner, Rev. Control reaction mixtures are incubated without the test compound or with a placebo. The presence of labeled-Rev that is not bound to RRE over that amount found in a control or standard sample is indicative of a test compound that competes with Rev for binding to RRE.
A novel solid-phase assembly was used to evaluate the RNA specificity of the new derivatives. This assay relies on the displacement of a fluorescent Rev peptide from a solid-phase immobilized RRE and can be performed in the presence of competing nucleic acids. Table 4 (columns b-d) summarizes the IC50 values determined by this method. By comparing IC50 values measured in the absence of any competitors to the values measured in the presence of DNA or RNA, a quantitative measure for the relative selectivity of each ligand can be made. Aminoglycosides have a substantial affinity to poly A-poly U duplex RNA (compare column b to c, Table 4). […] For neomycin, this ratio increases upon guanidinylation, indicating a lower RRE selectivity. […]

For another assay, the system named is HIV-1. In words: Inhibition of viral replication in HIV-1-infected CD4+ HeLa cells (plaque formation). The class given is cell-based. The method, then:
By converting aminoglycosides into guanidinoglycosides the biological activities of these glycosides were dramatically affected. Neomycin B was reported to be an in vivo and in vitro inhibitor of Rev-RRE binding, as well as an effective inhibitor of HIV-1 replication in vivo. The ability of guanidinoneomycin B and guanidinotobramycin to inhibit viral replication in HIV-1-infected CD4+ HeLa cells was measured and compared to the antiviral activities of neomycin B and tobramycin (FIG. 6). As evidenced by the dose-dependent decrease in plaque formation, the guanidinoglycosides inhibit HIV replication with activities approximately 100 times higher than their amino precursors (FIG. 6). The antiviral activity of the guanidinoglycosides may be related to their ability to bind the RRE with high affinity and specificity, thus preventing the HIV-1 Rev-RRE interaction and viral replication.

What is called IC50 is the concentration that gives 50% inhibition.

With `N=C(N)NCC1OC(OC2C(NC(=N)N)CC(NC(=N)N)C(OC3OC(CO)C(O)C(NC(=N)N)C3O)C2O)C(NC(=N)N)CC1O` (stereo not drawn) [guanidino-tobramycin], the IC50 is 3.8 µM in assay [1] (Fluorescence Anisotropy (Table 4), read-out: IC50 (a) Anisotrophy); 0.65 µM in assay [1] (Fluorescence Anisotropy, guanidino form of the glycoside (Table 3), read-out: IC50 (uM) guandino form); 3.5 µM in assay [2] (15 ug/mL plasmid DNA (pGEM), read-out: IC50 (d) Solid-Phase + DNA); 5 µM in assay [2] (15 ug/mL polyA-polyU duplex RNA, read-out: IC50 (c) Solid-Phase + poly A polyU); 3 µM in assay [2] (Solid Phase Assay, competing DNA (Table 2), read-out: IC50 with DNA); 3.5 µM in assay [2] (Solid Phase Assay, competing tRNA (Table 2), read-out: IC50 with tRNA). Also, the half-inhibitory concentration (IC50) amounted to 2.5 µM in assay [2] (Solid Phase Assay, no competitor (Table 2), read-out: IC50) and 3 µM in assay [2] (Solid-phase, no competitor (Table 4), read-out: IC50 (b) Solid-Phase). Besides, the “(e) Ratio (c)/(b)” value in assay [2] (IC50 with polyA-polyU divided by IC50 without competitor, proportional to RRE selectivity) was 1.7. For the same molecule, the “more active when compared to tobramycin that has not been guanidinylated” value in assay [2] (solid phase assay) was “about 20 fold”. In addition, the “activity in the presence of competing nucleic acids” value in assay [2] (solid phase assay, competing DNA / tRNA) was “approximately the same activity in the presence of both competing DNA and tRNA”. The “inhibition of HIV replication, activity relative to parent aminoglycoside” value in the assay with HIV-1 is listed as “approximately 100 times”.

(Values after patent publication US6833445B2, “Guanidinylation, guanidinoglycosides, uses, and methods of assaying their activity” (The Regents of the University of California, priority 2000, dated 2004).)
